A value given as a limit tells only on which side of the number the result lay.

The target of one experiment is T1, ER (Homo sapiens, UniProt P03372).
T1 construct: host or cells: T47D and MCF7 human breast cancer cells
T1 sequence (P03372 1-595): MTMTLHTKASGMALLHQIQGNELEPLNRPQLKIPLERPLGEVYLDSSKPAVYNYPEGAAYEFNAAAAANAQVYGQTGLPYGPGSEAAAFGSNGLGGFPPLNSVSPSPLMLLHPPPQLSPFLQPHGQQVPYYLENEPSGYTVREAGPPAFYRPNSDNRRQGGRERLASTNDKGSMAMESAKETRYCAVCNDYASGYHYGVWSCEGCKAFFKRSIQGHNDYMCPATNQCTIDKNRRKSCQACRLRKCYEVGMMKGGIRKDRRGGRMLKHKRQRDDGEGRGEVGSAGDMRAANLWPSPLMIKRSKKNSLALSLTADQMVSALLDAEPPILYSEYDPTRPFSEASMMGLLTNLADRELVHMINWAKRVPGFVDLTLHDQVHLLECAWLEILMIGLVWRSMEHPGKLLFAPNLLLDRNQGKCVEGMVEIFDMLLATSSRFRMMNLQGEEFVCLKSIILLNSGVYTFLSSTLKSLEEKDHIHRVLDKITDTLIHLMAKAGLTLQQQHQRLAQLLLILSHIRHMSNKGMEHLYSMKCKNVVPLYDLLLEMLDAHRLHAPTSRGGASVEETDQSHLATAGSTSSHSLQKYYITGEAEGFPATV
Kind of experiment: ER degradation activity, in-cell western blot analysis in T47D cells. The experiment is classed as cell-based. The conditions noted are these: 16 hours, Table A does not say which cell line (T47D or MCF7), read-out: Potency (DC50). In a few lines:
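Cells were seeded overnight, exposed to diluted compounds for 16 hours, then stained with primary antibodies and with infrared-labelled secondary antibodies (1:1000, 1 h RT). Plates were scanned on a CLX reader, and ER levels were normalised to DMSO-treated wells.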
On to `C[C@@H]1Cc2c([nH]c3ccccc23)[C@@H](c2c(F)cc(N3CCC(N4Cc5cc6c(cc5C4)C(=O)N(C4CCC(=O)NC4=O)C6=O)CC3)cc2F)N1CC(F)F` (stereo partly drawn) [E 88, 6-(1-(4-((1R,3R)-2-(2,2-difluoroethyl)-3-methyl-2,3,4,9-tetrahydro-1H-pyrido[3,4-b]indol-1-yl)-3,5-difluorophenyl)piperidin-4-yl)-2-(2,6-dioxopiperidin-3-yl)-6,7-dihydropyrrolo[3,4-f]isoindole-1,3(2H,5H)-dione], for which the DC50 was above 100 nM.

Take `C[C@@H]1Cc2c([nH]c3ccccc23)[C@@H](c2ccc(N3CCC4(CCN(C(=O)CN5Cc6cc7c(cc6C5)C(=O)N(C5CCC(=O)NC5=O)C7=O)CC4)CC3)cc2)N1CC(F)F` (stereo partly drawn) [E 265, 6-(2-(9-(4-((1R,3R)-2-(2,2-difluoroethyl)-3-methyl-2,3,4,9-tetrahydro-1H-pyrido[3,4-b]indol-1-yl)phenyl)-3,9-diazaspiro[5.5]undecan-3-yl)-2-oxoethyl)-2-(2,6-dioxopiperidin-3-yl)-6,7-dihydropyrrolo[3,4-f]isoindole-1,3(2H,5H)-dione]: the DC50 fell in the range of 10 to 100 nM.

Regarding `O=C1CCC(N2Cc3cc4c(cc3C2=O)CN(C(=O)C2CCN(CC3CCN(c5ccc([C@@H]6c7ccc(O)cc7CC[C@@H]6c6ccccc6)cc5)CC3)CC2)C4)C(=O)N1` (stereo partly drawn) [E 284, 3-(6-(1-((1-(4-((1R,2S)-6-hydroxy-2-phenyl-1,2,3,4-tetrahydronaphthalen-1-yl)phenyl)piperidin-4-yl)methyl)piperidine-4-carbonyl)-1-oxo-3,5,6,7-tetrahydropyrrolo[3,4-f]isoindol-2(1H)-yl)piperidine-2,6-dione], the DC50 was above 100 nM.

As for `O=C1CCC(N2C(=O)c3cc4c(cc3C2=O)CN(C2CCC(NCC3CN(c5ccc([C@@H]6c7ccc(O)cc7CC[C@@H]6c6ccccc6)cc5)C3)CC2)C4)C(=O)N1` (stereo partly drawn) [E 339, 2-(2,6-dioxopiperidin-3-yl)-6-(4-(((1-(4-((1R,2S)-6-hydroxy-2-phenyl-1,2,3,4-tetrahydronaphthalen-1-yl)phenyl)azetidin-3-yl)methyl)amino)cyclohexyl)-6,7-dihydropyrrolo[3,4-f]isoindole-1,3(2H,5H)-dione], the DC50 was above 100 nM.

For the molecule `C[C@@H]1Cc2c([nH]c3ccccc23)[C@@H](c2ccc(N3CCC4(CCN(C(=O)CN5Cc6cc7c(cc6C5)C(=O)N(C5CCC(=O)NC5=O)C7=O)CC4)CC3)cn2)N1CC(F)F` (stereo partly drawn) [E 280, 6-(2-(9-(6-((1S,3R)-2-(2,2-difluoroethyl)-3-methyl-2,3,4,9-tetrahydro-1H-pyrido[3,4-b]indol-1-yl)pyridin-3-yl)-3,9-diazaspiro[5.5]undecan-3-yl)-2-oxoethyl)-2-(2,6-dioxopiperidin-3-yl)-6,7-dihydropyrrolo[3,4-f]isoindole-1,3(2H,5H)-dione], the DC50 is above 100 nM.

For the molecule `C[C@@H]1Cc2c([nH]c3ccccc23)[C@@H](c2c(F)cc(C3CCC(CN4CCC(N5Cc6cc7c(cc6C5)C(=O)N(C5CCC(=O)NC5=O)C7)CC4)CC3)cc2F)N1CC(F)F` (stereo partly drawn) [E 308, 3-(6-(1-((4-(4-((1R,3R)-2-(2,2-difluoroethyl)-3-methyl-2,3,4,9-tetrahydro-1H-pyrido[3,4-b]indol-1-yl)-3,5-difluorophenyl)cyclohexyl)methyl)piperidin-4-yl)-1-oxo-3,5,6,7-tetrahydropyrrolo[3,4-f]isoindol-2(1H)-yl)piperidine-2,6-dione], the DC50 was in the range of 10 to 100 nM.

As for `CN(C1CCN(c2ccc([C@@H]3c4ccc(O)cc4CC[C@@H]3c3ccccc3)cc2)CC1)N1CCC(C(=O)N2Cc3cc4c(cc3C2)C(=O)N(C2CCC(=O)NC2=O)C4=O)CC1` (mixture of isomers) [E 287, 2-(2,6-dioxopiperidin-3-yl)-6-(1-((1-(4-((1R,2S)-6-hydroxy-2-phenyl-1,2,3,4-tetrahydronaphthalen-1-yl)phenyl)piperidin-4-yl)(methyl)amino)piperidine-4-carbonyl)-6,7-dihydropyrrolo[3,4-f]isoindole-1,3(2H,5H)-dione], the DC50 is 10 to 100 nM.

On to `C[C@@H]1Cc2c([nH]c3ccccc23)[C@@H](c2c(F)cc(CN3CCC4(CCC(CN5Cc6cc7c(cc6C5)C(=O)N(C5CCC(=O)NC5=O)C7=O)CC4)CC3)cc2F)N1CC(F)F` (stereo partly drawn) [E 380, 6-((3-(4-((1R,3R)-2-(2,2-difluoroethyl)-3-methyl-2,3,4,9-tetrahydro-1H-pyrido[3,4-b]indol-1-yl)-3,5-difluorobenzyl)-3-azaspiro[5.5]undecan-9-yl)methyl)-2-(2,6-dioxopiperidin-3-yl)-6,7-dihydropyrrolo[3,4-f]isoindole-1,3(2H,5H)-dione], for which the DC50 was above 100 nM.

Take `O=C1CCC(N2C(=O)c3cc4c(cc3C2=O)CN(C(=O)[C@H]2CC[C@H](N3CC(Oc5ccc([C@H]6c7ccc(O)cc7CC[C@H]6c6ccccc6)cc5)C3)CC2)C4)C(=O)N1` (stereo partly drawn) [E 388, 2-(2,6-dioxopiperidin-3-yl)-6-((1S,4r)-4-(3-(4-((1S,2R)-6-hydroxy-2-phenyl-1,2,3,4-tetrahydronaphthalen-1-yl)phenoxy)azetidin-1-yl)cyclohexane-1-carbonyl)-6,7-dihydropyrrolo[3,4-f]isoindole-1,3(2H,5H)-dione]: the DC50 lay in the range of 10 to 100 nM.

As to `O=C1CCC(N2C(=O)c3cc4c(cc3C2=O)CN(CC2(F)CCN(CC3CCN(c5ccc([C@@H]6c7ccc(O)cc7CC[C@@H]6c6ccccc6)cc5)CC3)CC2)C4)C(=O)N1` (stereo partly drawn) [E 211, 2-(2,6-dioxopiperidin-3-yl)-6-((4-fluoro-1-((1-(4-((1R,2S)-6-hydroxy-2-phenyl-1,2,3,4-tetrahydronaphthalen-1-yl)phenyl)piperidin-4-yl)methyl)piperidin-4-yl)methyl)-6,7-dihydropyrrolo[3,4-f]isoindole-1,3(2H,5H)-dione], the DC50 was above 100 nM.

Take `C[C@@H]1Cc2cc(O)ccc2[C@@H](c2c(F)cc(N3CCC4(CN(C(=O)CN5Cc6cc7c(cc6C5)C(=O)N(C5CCC(=O)NC5=O)C7=O)C4)C3)cc2F)N1CC(F)F` (stereo partly drawn) [E 44, 6-(2-(6-(4-((1S,3R)-2-(2,2-difluoroethyl)-6-hydroxy-3-methyl-1,2,3,4-tetrahydroisoquinolin-1-yl)-3,5-difluorophenyl)-2,6-diazaspiro[3.4]octan-2-yl)-2-oxoethyl)-2-(2,6-dioxopiperidin-3-yl)-6,7-dihydropyrrolo[3,4-f]isoindole-1,3(2H,5H)-dione]: the DC50 is 10 to 100 nM.

Regarding `O=C1CCC(N2C(=O)c3cc4c(cc3C2=O)CN(CC(=O)N2CCC3(CC2)CCN(c2ccc(C(=C(CCCl)c5ccc(F)cc5)c5ccc(O)cc5)cc2)CC3)CC4)C(=O)N1` (stereo not shown) [E 193], the DC50 fell in the range of 10 to 100 nM.

The same experiment, now with this note: compounds 16 hours, Table A does not say whether T47D or MCF7, read-out: Potency (DC50).
For `C[C@@H]1Cc2c([nH]c3ccccc23)[C@@H](c2ccc(C3=CCC(C(=O)N4CCC(N5Cc6cc7c(cc6C5)C(=O)N(C5CCC(=O)NC5=O)C7=O)CC4)CC3)cc2F)N1CC1(F)CC1` (stereo partly drawn) [E 486, 2-(2,6-dioxopiperidin-3-yl)-6-(1-(3′-fluoro-4′-((1R,3R)-2-((1-fluorocyclopropyl)methyl)-3-methyl-2,3,4,9-tetrahydro-1H-pyrido[3,4-b]indol-1-yl)-2,3,4,5-tetrahydro-[1,1′-biphenyl]-4-carbonyl)piperidin-4-yl)-6,7-dihydropyrrolo[3,4-f]isoindole-1,3(2H,5H)-dione], the DC50 is above 100 nM.

As a reminder, the DC50 is the concentration at which degradation of the target reaches its halfway point.
